Measurements published in ChEMBL document CHEMBL4673385, “Discovery of Potent Inhibitors of Streptococcus mutans Biofilm with Antivirulence Activity” (ACS Med Chem Lett, 2021).
pIC50: −log10 of the molar value. Converted amounts (≈) assume the structure as drawn. The source made the active and inactive calls. No rule for the calls is given here.

What was measured:
[1] = Solubility of compound in water; format: physicochemical
[2] = test system: Streptococcus mutans; assay: Bactericidal activity against Streptococcus mutans UA159 assessed as reduction in bacterial growth at 100 uM after 24 hrs; format: functional, organism-based
[3] = test system: Streptococcus mutans; assay: Antibiofilm activity against Streptococcus mutans UA159 assessed as inhibition of biofilm formation by serial dilution method; format: functional, organism-based; details: for pIC50: Streptococcus mutans, UA159, read-out: IC50

Row | SMILES | solubility ([1]; water, read-out: solubility) [µg/mL] | Activity [2] | pIC50 [3] | solubility ([1]; buffer) | IC50 [3]
1 | CC(C)(C)OC(=O)NCc1ccccc1NC(=O)c1cc2cc([N+](=O)[O-])ccc2o1 | 25 (≈ 60.8 µM) | inactive | 4.57 | – | –
2 | NCc1ccccc1NC(=O)c1ccc2ccccc2c1 | – | inactive | – | – | –
3 | COC(=O)c1cccc(NC(=O)c2ccc(-c3ccccc3)cc2)c1 | < 5 | inactive | 3.98 | – | –
4 | COc1ccc2[nH]c(C(=O)Nc3ccccc3C(N)=O)cc2c1 | 10 (≈ 32.3 µM) | inactive | < 3.52 | – | –
5 | CC(C)(C)OC(=O)NCc1ccccc1NC(=O)c1cc2cc([N+](=O)[O-])ccc2[nH]1 | – | inactive | – | Insoluble | Nd(Insoluble)
6 | NC(=O)c1ccccc1NC(=O)c1cc2cc([N+](=O)[O-])ccc2[nH]1 | – | inactive | – | Insoluble | Nd(Insoluble)
7 | O=C(Nc1ccccc1)c1ccc(-c2ccccc2)cc1 | – | inactive | < 3.52 | – | –
8 | COC(=O)c1ccc(NC(=O)c2cc3cc([N+](=O)[O-])ccc3o2)cc1 | 20 (≈ 58.8 µM) | inactive | – | – | –
9 | CC(C)(C)OC(=O)NCc1ccccc1NC(=O)c1ccc2ccccc2c1 | – | inactive | 4.25 | – | –
10 | NCc1ccccc1NC(=O)c1cnc2ccccc2c1 | 5 (≈ 18 µM) | inactive | – | – | –
11 | COc1ccc2[nH]c(C(=O)Nc3ccc(C(N)=O)cc3)cc2c1 | – | inactive | < 3.52 | – | –
12 | O=C(Nc1ccccc1)c1cc2cc([N+](=O)[O-])ccc2s1 | 10 (≈ 33.5 µM) | inactive | < 3.52 | – | –
13 | NC(=O)c1cccc(NC(=O)c2cccc3ccccc23)c1 | 10 (≈ 34.4 µM) | inactive | – | – | –
14 | CC(C)(C)OC(=O)NCc1ccccc1NC(=O)c1cccc2ccccc12 | 5 (≈ 13.3 µM) | inactive | 3.71 | – | –
15 | NCc1ccccc1NC(=O)c1ccc2ccccc2n1 | 25 (≈ 90.1 µM) | inactive | 3.69 | – | –
16 | COC(=O)c1ccc(NC(=O)c2ccc3ccccc3n2)cc1 | 25 (≈ 81.6 µM) | inactive | – | – | –
17 | NC(=O)c1ccccc1NC(=O)c1ccc2ccccc2c1 | 25 (≈ 86.1 µM) | inactive | 4.08 | – | –
18 | COC(=O)c1ccc(NC(=O)c2cnc3ccccc3c2)cc1 | < 5 | inactive | 4.03 | – | –
19 | NC(=O)c1ccccc1NC(=O)c1ccc(-c2ccccc2)cc1 | 5 (≈ 15.8 µM) | inactive | 3.71 | – | –
20 | COc1ccc2[nH]c(C(=O)Nc3ccccc3CN)cc2c1 | – | inactive | – | Insoluble | Nd(Insoluble)
21 | NCc1ccccc1NC(=O)c1cc2cc([N+](=O)[O-])ccc2[nH]1 | – | inactive | – | – | –

Row | SMILES | solubility ([1]; water, read-out: solubility) [µg/mL] | Activity [2] | pIC50 [3] | solubility ([1]; buffer) | IC50 [3]
22 | NC(=O)c1ccc(NC(=O)c2ccc3ccccc3n2)cc1 | 5 (≈ 17.2 µM) | inactive | 4.26 | – | –
23 | COC(=O)c1cccc(NC(=O)c2cc3ccccc3s2)c1 | – | inactive | – | – | –
24 | O=C(Nc1ccccc1)c1ccc2ccccc2c1 | – | inactive | < 3.52 | – | –
25 | COC(=O)c1ccccc1NC(=O)c1cc2cc([N+](=O)[O-])ccc2s1 | – | inactive | < 3.52 | – | –
26 | COC(=O)c1ccccc1NC(=O)c1cc2ccccc2s1 | – | inactive | < 3.52 | – | –
27 | NC(=O)c1cccc(NC(=O)c2cc3cc([N+](=O)[O-])ccc3o2)c1 | 20 (≈ 61.5 µM) | inactive | 4.41 | – | –
28 | O=C(Nc1ccccc1)c1cccc2ccccc12 | – | inactive | < 3.52 | – | –
29 | NC(=O)c1ccc(NC(=O)c2cc3cc([N+](=O)[O-])ccc3o2)cc1 | – | inactive | < 3.52 | – | –
30 | COC(=O)c1ccc(NC(=O)c2cccc3ccccc23)cc1 | – | inactive | < 3.52 | – | –
31 | COC(=O)c1cccc(NC(=O)c2cc3cc([N+](=O)[O-])ccc3s2)c1 | 25 (≈ 70.2 µM) | inactive | 4.26 | – | –
32 | COC(=O)c1ccccc1NC(=O)c1cccc2ccccc12 | 5 (≈ 16.4 µM) | inactive | < 3.52 | – | –
33 | COC(=O)c1cccc(NC(=O)c2cc3cc([N+](=O)[O-])ccc3[nH]2)c1 | – | inactive | – | Insoluble | Nd(Insoluble)
34 | NC(=O)c1ccc(NC(=O)c2cc3cc([N+](=O)[O-])ccc3[nH]2)cc1 | – | inactive | – | Insoluble | Nd(Insoluble)
35 | NC(=O)c1cccc(NC(=O)c2cc3cc([N+](=O)[O-])ccc3s2)c1 | 25 (≈ 73.2 µM) | inactive | 4.37 | – | –
36 | COC(=O)c1cccc(NC(=O)c2cc3cc(OC)ccc3[nH]2)c1 | – | inactive | – | Insoluble | Nd(Insoluble)
37 | COC(=O)c1ccc(NC(=O)c2cc3ccccc3s2)cc1 | 20 (≈ 64.2 µM) | inactive | 4.39 | – | –
38 | NC(=O)c1ccccc1NC(=O)c1cccc2ccccc12 | – | inactive | 3.82 | – | –
39 | NCc1ccccc1NC(=O)c1cc2cc([N+](=O)[O-])ccc2o1 | 5 (≈ 16.1 µM) | inactive | 4.01 | – | –
40 | NC(=O)c1ccc(NC(=O)c2cnc3ccccc3c2)cc1 | – | inactive | < 3.52 | – | –
41 | COc1ccc2[nH]c(C(=O)Nc3ccccc3CNC(=O)OC(C)(C)C)cc2c1 | – | inactive | – | Insoluble | Nd(Insoluble)
42 | NC(=O)c1cccc(NC(=O)c2ccc(-c3ccccc3)cc2)c1 | 25 (≈ 79 µM) | inactive | 4.10 | – | –

Row | SMILES | solubility ([1]; water, read-out: solubility) [µg/mL] | Activity [2] | pIC50 [3] | solubility ([1]; buffer) | IC50 [3]
43 | COc1ccc2[nH]c(C(=O)Nc3ccccc3)cc2c1 | – | inactive | – | Insoluble | Nd(Insoluble)
44 | COC(=O)c1ccccc1NC(=O)c1cc2cc(OC)ccc2[nH]1 | – | inactive | – | Insoluble | Nd(Insoluble)
45 | CC(C)(C)OC(=O)NCc1ccccc1NC(=O)c1ccc(-c2ccccc2)cc1 | < 5 | inactive | 3.91 | – | –
46 | NCc1ccccc1NC(=O)c1cccc2ccccc12 | 25 (≈ 90.5 µM) | inactive | 3.65 | – | –
47 | COC(=O)c1ccccc1NC(=O)c1ccc(-c2ccccc2)cc1 | – | inactive | < 3.52 | – | –
48 | NC(=O)c1cccc(NC(=O)c2cc3ccccc3s2)c1 | < 5 | inactive | – | – | –
49 | COC(=O)c1cccc(NC(=O)c2cc3cc([N+](=O)[O-])ccc3o2)c1 | 25 (≈ 73.5 µM) | inactive | 5.57 | – | –
50 | NC(=O)c1ccc(NC(=O)c2cc3ccccc3s2)cc1 | 25 (≈ 84.4 µM) | inactive | 4.34 | – | –
51 | COC(=O)c1ccccc1NC(=O)c1ccc2ccccc2c1 | 25 (≈ 81.9 µM) | inactive | – | – | –
52 | COC(=O)c1ccc(NC(=O)c2ccc(-c3ccccc3)cc2)cc1 | – | inactive | < 3.52 | – | –
53 | NC(=O)c1ccc(NC(=O)c2cccc3ccccc23)cc1 | < 5 | inactive | – | – | –
54 | NCc1ccccc1NC(=O)c1ccc(-c2ccccc2)cc1 | – | inactive | 3.71 | – | –
55 | NC(=O)c1ccccc1NC(=O)c1cc2cc([N+](=O)[O-])ccc2o1 | 5 (≈ 15.4 µM) | inactive | – | – | –
56 | NC(=O)c1ccc(NC(=O)c2cc3cc([N+](=O)[O-])ccc3s2)cc1 | – | inactive | < 3.52 | – | –
57 | NCc1ccccc1NC(=O)c1cc2cc([N+](=O)[O-])ccc2s1 | 1000 (≈ 3050 µM) | inactive | – | – | –
58 | NC(=O)c1cccc(NC(=O)c2ccc3ccccc3n2)c1 | 10 (≈ 34.3 µM) | inactive | – | – | –
59 | COC(=O)c1cccc(NC(=O)c2cnc3ccccc3c2)c1 | – | inactive | – | – | –
60 | O=C(Nc1ccccc1)c1cc2ccccc2s1 | – | inactive | < 3.52 | – | –
61 | NCc1ccccc1NC(=O)c1cc2ccccc2s1 | – | inactive | 3.78 | – | –
